Measurements taken from the supplement of paper PMC11451515.

System: SEM cells
Assay: cell viability relative to DMSO control; higher = less cytotoxic
Conditions: 48 h
How it was run: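 Viability is a per-plate percentage relative to DMSO wells, with cell-free wells as background. CellTiter-Glo One luminescence was read after 48 h at 37°C on 1536-well plates (5 μl) of NOMO1 or SEM (500 cells/well) or P12-Ichikawa (1000 cells/well) leukemia cells. The cells had been adapted for at least four passages in each medium and pin-dosed with library compounds in DMSO from 47 μM to 0.79 nM in 11 threefold steps.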

[1] = HPLM + 10% dialyzed FBS, 0.000781 µM
[2] = HPLM + 10% dialyzed FBS, 0.00234 µM
[3] = HPLM + 10% dialyzed FBS, 0.00702 µM
[4] = HPLM + 10% dialyzed FBS, 0.0211 µM
[5] = HPLM + 10% dialyzed FBS, 0.0632 µM
[6] = HPLM + 10% dialyzed FBS, 0.19 µM
[7] = HPLM + 10% dialyzed FBS, 0.569 µM
[8] = HPLM + 10% dialyzed FBS, 1.71 µM
[9] = HPLM + 10% dialyzed FBS, 5.12 µM
[10] = HPLM + 10% dialyzed FBS, 15.4 µM
[11] = HPLM + 10% dialyzed FBS, 46.1 µM
[12] = RPMI 5 mM glucose + 10% FBS, 0.000781 µM
[13] = RPMI 5 mM glucose + 10% FBS, 0.00234 µM
[14] = RPMI 5 mM glucose + 10% FBS, 0.00702 µM
[15] = RPMI 5 mM glucose + 10% FBS, 0.0211 µM
[16] = RPMI 5 mM glucose + 10% FBS, 0.0632 µM
[17] = RPMI 5 mM glucose + 10% FBS, 0.19 µM
[18] = RPMI 5 mM glucose + 10% FBS, 0.569 µM
[19] = RPMI 5 mM glucose + 10% FBS, 1.71 µM
[20] = RPMI 5 mM glucose + 10% FBS, 5.12 µM
[21] = RPMI 5 mM glucose + 10% FBS, 15.4 µM
[22] = RPMI 5 mM glucose + 10% FBS, 46.1 µM
[23] = RPMI 5 mM glucose + 10% dialyzed FBS, 0.000781 µM
[24] = RPMI 5 mM glucose + 10% dialyzed FBS, 0.00234 µM
[25] = RPMI 5 mM glucose + 10% dialyzed FBS, 0.00702 µM
[26] = RPMI 5 mM glucose + 10% dialyzed FBS, 0.0211 µM
[27] = RPMI 5 mM glucose + 10% dialyzed FBS, 0.0632 µM
[28] = RPMI 5 mM glucose + 10% dialyzed FBS, 0.19 µM
[29] = RPMI 5 mM glucose + 10% dialyzed FBS, 0.569 µM
[30] = RPMI 5 mM glucose + 10% dialyzed FBS, 1.71 µM
[31] = RPMI 5 mM glucose + 10% dialyzed FBS, 5.12 µM
[32] = RPMI 5 mM glucose + 10% dialyzed FBS, 15.4 µM
[33] = RPMI 5 mM glucose + 10% dialyzed FBS, 46.1 µM

Question: With `CCOc1cc2c(c(F)c1OCC)C(=N)N(CC(=O)c1cc(N3CCOCC3)c(OC)c(C(C)(C)C)c1)C2` as the compound, how does the cell viability [1] read?
Answer: Its cell viability is 96.2%.

Question: What about the cell viability [2] of the same compound?
Answer: Its cell viability is 95.6%.

Question: And the cell viability [3]?
Answer: Its cell viability is 95.7%.

Question: What about the cell viability [4] of the same compound?
Answer: Its cell viability is 101%.

Question: And the cell viability [5]?
Answer: Its cell viability is 94%.

Question: What about the cell viability [6] of the same compound?
Answer: Its cell viability is 110%.

Question: And the cell viability [7]?
Answer: The cell viability was 117%.

Question: What about the cell viability [8] of the same compound?
Answer: The cell viability was 108%.

Question: What about the cell viability [9] of the same compound?
Answer: Its cell viability is 104%.

Question: And the cell viability [10]?
Answer: The cell viability was 97.8%.

Question: And the cell viability [11]?
Answer: The cell viability was 59.8%.

Question: And the cell viability [12]?
Answer: Its cell viability is 110%.

Question: And the cell viability [13]?
Answer: The cell viability was 98.1%.

Question: What about the cell viability [14] of the same compound?
Answer: Its cell viability is 93.9%.

Question: What about the cell viability [15] of the same compound?
Answer: The cell viability was 113%.

Question: And the cell viability [16]?
Answer: Its cell viability is 111%.

Question: What about the cell viability [17] of the same compound?
Answer: The cell viability was 103%.

Question: What about the cell viability [18] of the same compound?
Answer: Its cell viability is 114%.

Question: What about the cell viability [19] of the same compound?
Answer: The cell viability was 121%.

Question: What about the cell viability [20] of the same compound?
Answer: Its cell viability is 108%.

Question: What about the cell viability [21] of the same compound?
Answer: Its cell viability is 107%.

Question: What about the cell viability [22] of the same compound?
Answer: Its cell viability is 52.5%.

Question: What about the cell viability [23] of the same compound?
Answer: Its cell viability is 83.9%.

Question: And the cell viability [24]?
Answer: Its cell viability is 105%.

Question: What about the cell viability [25] of the same compound?
Answer: The cell viability was 99.8%.

Question: And the cell viability [26]?
Answer: The cell viability was 101%.

Question: What about the cell viability [27] of the same compound?
Answer: The cell viability was 119%.

Question: And the cell viability [28]?
Answer: The cell viability was 116%.

Question: And the cell viability [29]?
Answer: The cell viability was 117%.

Question: And the cell viability [30]?
Answer: Its cell viability is 124%.

Question: And the cell viability [31]?
Answer: Its cell viability is 117%.

Question: What about the cell viability [32] of the same compound?
Answer: Its cell viability is 125%.

Question: What about the cell viability [33] of the same compound?
Answer: Its cell viability is 74.4%.

Question: How did the cell viability [1] turn out when `CC(C)c1ccc2oc3nc(N)c(C(=O)O)cc3c(=O)c2c1` was run?
Answer: The cell viability was 106%.

Question: And the cell viability [2]?
Answer: The cell viability was 109%.

Question: What about the cell viability [3] of the same compound?
Answer: The cell viability was 96.6%.

Question: And the cell viability [4]?
Answer: Its cell viability is 109%.

Question: And the cell viability [5]?
Answer: Its cell viability is 126%.

Question: And the cell viability [6]?
Answer: Its cell viability is 108%.

Question: And the cell viability [7]?
Answer: Its cell viability is 128%.

Question: And the cell viability [8]?
Answer: Its cell viability is 115%.

Question: What about the cell viability [9] of the same compound?
Answer: The cell viability was 106%.

Question: What about the cell viability [10] of the same compound?
Answer: The cell viability was 118%.

Question: What about the cell viability [11] of the same compound?
Answer: The cell viability was 102%.

Question: What about the cell viability [12] of the same compound?
Answer: The cell viability was 116%.

Question: And the cell viability [13]?
Answer: Its cell viability is 131%.

Question: What about the cell viability [14] of the same compound?
Answer: The cell viability was 122%.

Question: And the cell viability [15]?
Answer: Its cell viability is 122%.

Question: What about the cell viability [16] of the same compound?
Answer: The cell viability was 145%.

Question: What about the cell viability [17] of the same compound?
Answer: The cell viability was 134%.

Question: What about the cell viability [18] of the same compound?
Answer: Its cell viability is 150%.

Question: What about the cell viability [19] of the same compound?
Answer: Its cell viability is 121%.

Question: And the cell viability [20]?
Answer: Its cell viability is 134%.

Question: And the cell viability [21]?
Answer: The cell viability was 140%.

Question: And the cell viability [22]?
Answer: Its cell viability is 137%.

Question: And the cell viability [23]?
Answer: The cell viability was 98%.

Question: What about the cell viability [24] of the same compound?
Answer: Its cell viability is 118%.

Question: What about the cell viability [25] of the same compound?
Answer: The cell viability was 134%.

Question: What about the cell viability [26] of the same compound?
Answer: Its cell viability is 141%.

Question: What about the cell viability [27] of the same compound?
Answer: The cell viability was 141%.

Question: And the cell viability [28]?
Answer: Its cell viability is 131%.

Question: What about the cell viability [29] of the same compound?
Answer: Its cell viability is 143%.

Question: And the cell viability [30]?
Answer: Its cell viability is 127%.

Question: And the cell viability [31]?
Answer: Its cell viability is 146%.

Question: What about the cell viability [32] of the same compound?
Answer: Its cell viability is 146%.

Question: And the cell viability [33]?
Answer: Its cell viability is 129%.
